Measured values as given in ChEMBL document CHEMBL3352059, “Neuroprotective effects of a brain permeant 6-aminoquinoxaline derivative in cell culture conditions that model the loss of dopaminergic neurons in Parkinson disease” (Eur J Med Chem, 2015).
Converted amounts (≈) assume the structure as drawn. Each block holds one molecule with its values, some of them ahead of it. The source made the active and inactive calls. No cut-off for these calls is given here.

What was measured:
Rattus norvegicus [1] = organism: Rattus norvegicus; test: Neuroprotective effect in Sprague-Dawley rat DA neurons assessed as [3H]-DA uptake at 100 uM after 10 days by liquid scintillation spectrometry relative to control; type: functional
Brain [2] = test: Drug uptake in C57BL/6J mouse brain at 75 mg/kg, po after 1 hr by MALDI-TOF mass spectrometry; type: ADME, organism-based; design: dose 75 mg/kg, route oral; details: in vivo
Mus musculus [3] = test: Toxicity in C57BL/6J mouse assessed as behavioral change at 150 mg/kg, po bid administered for 4 days followed by single dose on day 5 […]; type: organism-based; design: dose 150 mg/kg, route oral; details: in vivo, 96 h
Mus musculus [4] = test: Toxicity in C57BL/6J mouse assessed as change in food intake at 150 mg/kg, po bid administered for 4 days followed by single dose on day 5 […]; type: organism-based; design: dose 150 mg/kg, route oral; details: in vivo, 96 h
Rattus norvegicus [5] = organism: Rattus norvegicus; test: Neuroprotective effect in Sprague-Dawley rat DA neurons at 10 uM under chronic oxidative stress condition; type: functional
[6] = Aqueous solubility of the compound at pH 7.4 after 5 mins by HPLC analysis; type: physicochemical
Rattus norvegicus [7] = organism: Rattus norvegicus; test: Neuroprotective effect in Sprague-Dawley rat DA neurons at 100 uM after 10 days by immunofluorescence assay; type: functional
Brain [8] = test: Drug uptake in C57BL/6J mouse brain at 150 mg/kg, po bid administered for 4 days followed by single dose on day 5 measured 1 hr post last dose; type: ADME, organism-based; design: dose 150 mg/kg, route oral; details: in vivo
Rattus norvegicus [9] = organism: Rattus norvegicus; test: Neuroprotective effect in Sprague-Dawley rat DA neurons assessed as developement of neuritic network at 100 uM after 10 days by microscopic analysis relative to control; type: functional
Striatum = test: Drug uptake in C57BL/6J mouse striatum at 75 mg/kg, po after 1 hr by MALDI-TOF mass spectrometry; type: ADME, organism-based; design: dose 75 mg/kg, route oral; details: in vivo
[10] = Drug uptake in C57BL/6J mouse ventral mesencephalon at 75 mg/kg, po after 1 hr by MALDI-TOF mass spectrometry; type: ADME, organism-based; design: dose 75 mg/kg, route oral; details: in vivo
Rattus norvegicus [11] = organism: Rattus norvegicus; test: Neuroprotective effect in Sprague-Dawley rat DA neurons under GDNF deprived condition at 50 to 100 uM; type: functional
Rattus norvegicus [12] = organism: Rattus norvegicus; test: Antiproliferative activity at Sprague-Dawley rat DA neurons assessed as reduction of [3H]-thymidine incorporation at 50 to 100 uM after 8 days by liquid scintillation spectrometry; type: functional
[13] = Antioxidant activity assessed as radical scavenging activity after 1 hr by ABTS competition assay; type: physicochemical
Rattus norvegicus [14] = organism: Rattus norvegicus; test: Neuroprotective effect in Sprague-Dawley rat DA neurons at 100 uM in presence of anti-GDNF antibody AB-212-NA; type: functional
Nucleic Acid = test: Ratio of drug uptake in C57BL/6J mouse striatum to cortical area at 75 mg/kg, po after 1 hr by MALDI-TOF mass spectrometry; type: ADME, organism-based; design: dose 75 mg/kg, route oral; details: in vivo
Mus musculus [15] = test: Toxicity in C57BL/6J mouse assessed as change in body weight at 150 mg/kg, po bid administered for 4 days followed by single dose on day 5 […]; type: organism-based; design: dose 150 mg/kg, route oral; details: in vivo, 96 h
[16] = Ratio of drug uptake from brain to plasma in C57BL/6J mouse at 150 mg/kg, po bid administered for 4 days followed by single dose on day 5 measured 1 hr post last dose; type: ADME, organism-based; design: dose 150 mg/kg, route oral; details: read-out: BPR
Rattus norvegicus [17] = organism: Rattus norvegicus; test: Neuroprotective effect in Sprague-Dawley rat DA neurons under chronic oxidative stress condition; type: functional
Rattus norvegicus [18] = organism: Rattus norvegicus; test: Neuroprotective effect in Sprague-Dawley rat DA neurons assessed as developement of neuritic network after 10 days by microscopic analysis relative to control; type: functional
Rattus norvegicus [19] = organism: Rattus norvegicus; test: Neuroprotective effect in Sprague-Dawley rat DA neurons after 10 days by immunofluorescence assay; type: functional
Rattus norvegicus [20] = organism: Rattus norvegicus; test: Neuroprotective effect in Sprague-Dawley rat DA neurons assessed as [3H]-DA uptake after 10 days by liquid scintillation spectrometry relative to control; type: functional
Rattus norvegicus [21] = organism: Rattus norvegicus; test: Neuroprotective effect in Sprague-Dawley rat DA neurons assessed as developement of neuritic network at 10 uM after 10 days by microscopic analysis relative to control; type: functional
Rattus norvegicus [22] = organism: Rattus norvegicus; test: Neuroprotective effect in Sprague-Dawley rat DA neurons at 10 uM after 10 days by immunofluorescence assay; type: functional
Rattus norvegicus [23] = organism: Rattus norvegicus; test: Neuroprotective effect in Sprague-Dawley rat DA neurons assessed as [3H]-DA uptake at 10 uM after 10 days by liquid scintillation spectrometry relative to control; type: functional
Rattus norvegicus [24] = organism: Rattus norvegicus; test: Antiproliferative activity at Sprague-Dawley rat DA neurons assessed as reduction of [3H]-thymidine incorporation at 1 mM after 8 days by liquid scintillation spectrometry; type: functional
Rattus norvegicus [25] = organism: Rattus norvegicus; test: Neuroprotective effect in Sprague-Dawley rat DA neurons at 1 mM after 10 days by immunofluorescence assay; type: functional

Drug uptake (Brain [2]): Active
solubility at 5 min [6]: 125 µM (≈ 29.4 µg/mL)
Drug uptake (Brain [8]): Active
Drug uptake (Striatum): Active
Drug uptake [10]: Active
IC50 [13]: 350 µM
Ratio (Nucleic Acid): 2.7
Kp at 1 h [16]: 1
SMILES: Cc1nc2ccc(N)cc2nc1-c1ccccc1
Activity (Rattus norvegicus [1]): Active
Activity (Mus musculus [3]): Non-toxic
Activity (Mus musculus [4]): Non-toxic
Activity (Rattus norvegicus [5]): Active
Activity (Rattus norvegicus [7]): Active
Activity (Rattus norvegicus [9]): Active
Activity (Rattus norvegicus [11]): Active
Activity (Rattus norvegicus [12]): Active
Activity (Rattus norvegicus [14]): Active
Activity (Mus musculus [15]): Non-toxic
Activity (Rattus norvegicus [17]): Dose-dependent effect

SMILES: CCCCCCc1nc2ccc(N)cc2nc1CCCC
Activity (Rattus norvegicus [18]): inactive
Activity (Rattus norvegicus [19]): inactive
Activity (Rattus norvegicus [20]): inactive

SMILES: CCCCc1nc2cc(N)ccc2nc1C
Activity (Rattus norvegicus [18]): inactive
Activity (Rattus norvegicus [19]): inactive
Activity (Rattus norvegicus [20]): inactive

SMILES: CCCCc1cnc2ccc(N)cc2n1
Activity (Rattus norvegicus [18]): inactive
Activity (Rattus norvegicus [19]): inactive
Activity (Rattus norvegicus [20]): inactive

solubility at 5 min [6]: 5 µM (≈ 1.85 µg/mL)
SMILES: CCCCCCCCCCCCCCCNc1ccc2nc(C)cnc2c1
Activity (Rattus norvegicus [21]): Active
Activity (Rattus norvegicus [22]): inactive
Activity (Rattus norvegicus [23]): Active

SMILES: Cc1cnc2cc(N)ccc2n1
Activity (Rattus norvegicus [18]): inactive
Activity (Rattus norvegicus [19]): inactive
Activity (Rattus norvegicus [20]): inactive

SMILES: CC(=O)N(O)CCCCCNC(=O)CCC(=O)N(O)CCCCCNC(=O)CCC(=O)N(O)CCCCCN
Activity (Rattus norvegicus [5]): Active

SMILES: Nc1ccc2nccnc2c1
Activity (Rattus norvegicus [18]): inactive
Activity (Rattus norvegicus [19]): inactive
Activity (Rattus norvegicus [20]): inactive

SMILES: CCCC(=O)Nc1ncnc2c1ncn2[C@@H]1O[C@@H]2COP(=O)(O)O[C@H]2[C@H]1OC(=O)CCC
Activity (Rattus norvegicus [24]): Active
Activity (Rattus norvegicus [25]): Active

IC50 [13]: 270 µM
SMILES: Cc1c(C)c2c(c(C)c1O)CCC(C)(C(=O)O)O2 (configuration not stated) [TROLOX]
